# Reference: article PMC7000700, “RyR1-targeted drug discovery pipeline integrating FRET-based high-throughput screening and human myofiber dynamic Ca^2+ assays” (Scientific Reports, 2020)
# Experiments:
# [1] = target: ryanodine receptor, cardiac isoform (RyR2), in porcine cardiac SR membranes (pig (endogenous in porcine cardiac left ventricle)); assay: co-sedimentation; fluorescent FKBP12.6 co-sedimented with pig skeletal and cardiac SR membranes, same conditions as the primary screen; with 10 μM temsirolimus or tacrolimus
# [2] = target: ryanodine receptor, skeletal muscle isoform (RyR1), in porcine skeletal heavy SR membranes (pig (endogenous in porcine longissimus dorsi muscle)) (UniProt P16960); assay: as above
# [3] = target: ryanodine receptor, cardiac isoform (RyR2), in porcine cardiac SR membranes (pig (endogenous in porcine cardiac left ventricle)); assay: FRET or BRET; same FLT-FRET read-out with temsirolimus (dose response); skeletal and cardiac SR membranes, 30 nM Ca2+, 5 mM GSSG or GSH
# [4] = target: ryanodine receptor, skeletal muscle isoform (RyR1), in porcine skeletal heavy SR membranes (pig (endogenous in porcine longissimus dorsi muscle)) (UniProt P16960); assay: as above
# RyR1 [5] = target: T1, RyR1 (Sus scrofa, UniProt P16960); assay: F-FKBP binding to RyR1 by co-sedimentation with skeletal SR membranes; parameters: using co-sedimentation with pig skeletal and cardiac SR membranes; from tissue; host or cells: pig skeletal muscle (heavy SR membranes); species or system pig; details: RyR1, 10 μM Hit, 30 nM Ca2+, 5 mM GSSG or GSH
# T1 sequence (P16960 whole entry): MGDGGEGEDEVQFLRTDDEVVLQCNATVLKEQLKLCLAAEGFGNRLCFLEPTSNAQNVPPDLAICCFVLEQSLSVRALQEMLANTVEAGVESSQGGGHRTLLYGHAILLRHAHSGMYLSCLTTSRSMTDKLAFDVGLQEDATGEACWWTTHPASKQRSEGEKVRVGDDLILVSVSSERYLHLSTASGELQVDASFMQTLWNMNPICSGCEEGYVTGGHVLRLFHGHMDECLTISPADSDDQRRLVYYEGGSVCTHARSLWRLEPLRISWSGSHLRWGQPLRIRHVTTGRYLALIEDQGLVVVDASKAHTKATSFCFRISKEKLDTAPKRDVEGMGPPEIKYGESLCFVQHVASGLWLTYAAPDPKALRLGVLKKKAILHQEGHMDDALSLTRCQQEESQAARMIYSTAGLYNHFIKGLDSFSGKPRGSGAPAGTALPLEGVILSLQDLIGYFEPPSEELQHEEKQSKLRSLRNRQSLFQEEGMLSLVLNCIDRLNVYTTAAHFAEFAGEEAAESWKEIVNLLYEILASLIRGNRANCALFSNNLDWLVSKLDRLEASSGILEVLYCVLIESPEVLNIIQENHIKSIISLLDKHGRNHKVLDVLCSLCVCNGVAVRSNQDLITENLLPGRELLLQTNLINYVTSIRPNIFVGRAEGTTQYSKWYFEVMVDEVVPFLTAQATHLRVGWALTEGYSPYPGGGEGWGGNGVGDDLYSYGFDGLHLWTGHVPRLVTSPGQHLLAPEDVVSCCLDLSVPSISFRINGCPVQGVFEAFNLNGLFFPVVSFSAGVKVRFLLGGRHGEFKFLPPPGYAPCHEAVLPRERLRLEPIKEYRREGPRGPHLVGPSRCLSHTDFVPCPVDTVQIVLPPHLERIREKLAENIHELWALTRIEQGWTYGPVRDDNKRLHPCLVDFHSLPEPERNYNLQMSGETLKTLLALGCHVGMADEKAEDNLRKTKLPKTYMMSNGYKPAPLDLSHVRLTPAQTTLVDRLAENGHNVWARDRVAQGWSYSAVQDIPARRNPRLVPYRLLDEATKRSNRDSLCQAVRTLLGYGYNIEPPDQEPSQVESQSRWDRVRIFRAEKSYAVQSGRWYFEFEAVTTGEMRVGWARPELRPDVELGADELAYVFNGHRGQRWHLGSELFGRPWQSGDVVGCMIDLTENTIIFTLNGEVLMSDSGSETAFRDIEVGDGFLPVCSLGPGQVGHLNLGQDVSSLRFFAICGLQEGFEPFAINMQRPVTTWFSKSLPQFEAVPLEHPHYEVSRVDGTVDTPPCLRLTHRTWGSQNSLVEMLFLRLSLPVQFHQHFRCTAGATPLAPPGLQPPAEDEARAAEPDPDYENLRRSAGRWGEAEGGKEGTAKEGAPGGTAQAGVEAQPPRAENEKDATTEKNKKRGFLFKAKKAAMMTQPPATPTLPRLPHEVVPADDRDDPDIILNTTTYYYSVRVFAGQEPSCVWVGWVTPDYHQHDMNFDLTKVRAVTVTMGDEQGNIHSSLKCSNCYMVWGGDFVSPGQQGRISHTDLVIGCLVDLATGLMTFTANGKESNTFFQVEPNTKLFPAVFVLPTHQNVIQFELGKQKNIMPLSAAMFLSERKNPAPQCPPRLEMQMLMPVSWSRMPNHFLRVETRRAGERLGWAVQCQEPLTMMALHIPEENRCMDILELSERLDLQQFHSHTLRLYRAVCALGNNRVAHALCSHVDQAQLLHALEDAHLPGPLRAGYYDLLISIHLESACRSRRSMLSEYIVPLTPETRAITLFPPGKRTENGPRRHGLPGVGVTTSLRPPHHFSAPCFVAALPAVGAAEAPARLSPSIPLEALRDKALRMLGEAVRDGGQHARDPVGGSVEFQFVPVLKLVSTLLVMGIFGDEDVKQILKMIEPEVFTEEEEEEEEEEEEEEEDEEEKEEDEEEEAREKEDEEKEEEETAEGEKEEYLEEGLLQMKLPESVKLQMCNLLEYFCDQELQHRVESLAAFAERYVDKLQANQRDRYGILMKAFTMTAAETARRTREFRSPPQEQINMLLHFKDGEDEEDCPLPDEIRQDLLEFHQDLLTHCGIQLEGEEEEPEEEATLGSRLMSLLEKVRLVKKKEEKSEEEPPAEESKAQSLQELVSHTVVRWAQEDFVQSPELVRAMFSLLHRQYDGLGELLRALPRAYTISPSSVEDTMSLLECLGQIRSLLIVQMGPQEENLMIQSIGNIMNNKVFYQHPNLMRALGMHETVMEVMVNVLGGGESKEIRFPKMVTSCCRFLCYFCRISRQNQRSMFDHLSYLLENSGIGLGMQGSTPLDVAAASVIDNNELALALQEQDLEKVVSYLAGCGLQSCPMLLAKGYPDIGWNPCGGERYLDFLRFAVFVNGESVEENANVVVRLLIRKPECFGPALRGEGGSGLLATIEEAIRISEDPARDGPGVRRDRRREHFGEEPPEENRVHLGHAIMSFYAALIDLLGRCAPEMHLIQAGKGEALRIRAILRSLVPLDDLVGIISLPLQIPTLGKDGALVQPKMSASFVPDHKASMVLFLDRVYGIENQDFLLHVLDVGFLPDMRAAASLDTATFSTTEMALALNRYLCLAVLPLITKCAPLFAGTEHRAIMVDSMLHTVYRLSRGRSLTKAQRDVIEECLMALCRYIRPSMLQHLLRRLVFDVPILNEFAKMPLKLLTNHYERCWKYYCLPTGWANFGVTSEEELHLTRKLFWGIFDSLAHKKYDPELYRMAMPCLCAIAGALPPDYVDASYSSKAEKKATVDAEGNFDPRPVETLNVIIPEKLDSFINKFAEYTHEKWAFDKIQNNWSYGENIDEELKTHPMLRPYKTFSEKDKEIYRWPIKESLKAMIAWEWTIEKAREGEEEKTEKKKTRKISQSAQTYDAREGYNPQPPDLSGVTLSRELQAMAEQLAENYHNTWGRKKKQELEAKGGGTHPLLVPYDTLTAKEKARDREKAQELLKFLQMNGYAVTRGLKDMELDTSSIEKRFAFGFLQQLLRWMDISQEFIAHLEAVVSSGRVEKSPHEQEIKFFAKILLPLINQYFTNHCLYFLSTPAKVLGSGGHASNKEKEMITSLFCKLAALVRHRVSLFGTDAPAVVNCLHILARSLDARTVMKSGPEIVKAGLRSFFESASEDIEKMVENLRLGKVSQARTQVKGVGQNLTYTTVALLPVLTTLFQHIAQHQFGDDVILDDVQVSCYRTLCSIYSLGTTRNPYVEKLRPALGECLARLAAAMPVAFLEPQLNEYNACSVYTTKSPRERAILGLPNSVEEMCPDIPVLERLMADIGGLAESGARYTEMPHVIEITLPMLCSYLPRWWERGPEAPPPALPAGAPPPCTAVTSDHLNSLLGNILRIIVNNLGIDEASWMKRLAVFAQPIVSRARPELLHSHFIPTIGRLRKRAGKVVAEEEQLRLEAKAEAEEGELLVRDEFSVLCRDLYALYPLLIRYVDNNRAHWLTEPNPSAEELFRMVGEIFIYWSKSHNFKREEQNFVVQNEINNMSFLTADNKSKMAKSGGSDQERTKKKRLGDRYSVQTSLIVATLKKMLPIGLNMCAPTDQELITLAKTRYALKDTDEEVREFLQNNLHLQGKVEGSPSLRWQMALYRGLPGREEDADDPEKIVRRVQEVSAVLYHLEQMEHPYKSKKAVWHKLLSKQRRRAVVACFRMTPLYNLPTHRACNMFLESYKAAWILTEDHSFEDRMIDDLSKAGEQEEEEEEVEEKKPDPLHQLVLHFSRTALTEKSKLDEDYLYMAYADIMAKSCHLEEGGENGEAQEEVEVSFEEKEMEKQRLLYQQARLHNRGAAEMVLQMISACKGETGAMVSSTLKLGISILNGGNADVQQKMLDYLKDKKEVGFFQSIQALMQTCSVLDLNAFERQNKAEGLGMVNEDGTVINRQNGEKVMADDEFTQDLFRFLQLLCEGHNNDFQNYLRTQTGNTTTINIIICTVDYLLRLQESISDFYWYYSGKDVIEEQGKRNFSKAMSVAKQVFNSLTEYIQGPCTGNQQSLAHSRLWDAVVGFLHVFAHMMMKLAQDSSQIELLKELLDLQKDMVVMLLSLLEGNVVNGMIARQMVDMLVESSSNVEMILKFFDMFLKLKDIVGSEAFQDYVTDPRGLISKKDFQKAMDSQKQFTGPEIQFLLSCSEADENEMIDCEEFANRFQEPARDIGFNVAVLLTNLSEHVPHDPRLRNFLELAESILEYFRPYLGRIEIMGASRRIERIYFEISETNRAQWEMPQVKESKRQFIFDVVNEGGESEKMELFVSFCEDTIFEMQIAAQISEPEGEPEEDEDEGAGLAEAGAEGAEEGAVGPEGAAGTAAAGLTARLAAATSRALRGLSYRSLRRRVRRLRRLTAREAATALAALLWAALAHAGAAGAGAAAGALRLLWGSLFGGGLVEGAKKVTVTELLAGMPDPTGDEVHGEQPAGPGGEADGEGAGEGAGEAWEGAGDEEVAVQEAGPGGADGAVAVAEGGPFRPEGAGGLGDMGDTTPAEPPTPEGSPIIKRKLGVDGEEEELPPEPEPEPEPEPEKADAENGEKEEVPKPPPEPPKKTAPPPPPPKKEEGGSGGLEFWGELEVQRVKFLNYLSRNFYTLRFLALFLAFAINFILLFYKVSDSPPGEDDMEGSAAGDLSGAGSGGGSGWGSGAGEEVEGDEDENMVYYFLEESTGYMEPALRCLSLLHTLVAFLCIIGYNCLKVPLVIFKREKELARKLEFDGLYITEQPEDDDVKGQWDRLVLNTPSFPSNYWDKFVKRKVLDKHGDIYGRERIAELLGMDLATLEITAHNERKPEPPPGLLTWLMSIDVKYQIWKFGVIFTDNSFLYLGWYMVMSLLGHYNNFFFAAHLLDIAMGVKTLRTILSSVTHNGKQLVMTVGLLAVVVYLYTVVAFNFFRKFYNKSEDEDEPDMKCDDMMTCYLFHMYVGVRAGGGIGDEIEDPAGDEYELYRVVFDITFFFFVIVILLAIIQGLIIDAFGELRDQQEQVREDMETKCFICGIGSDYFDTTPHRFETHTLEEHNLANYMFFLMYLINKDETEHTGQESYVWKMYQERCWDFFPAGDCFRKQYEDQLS
# Description: (§1) The Hit-induced effect on FRET between D-FKBP and A-CaM most likely results from one or the combination of factors, including a shift in CaM and/or FKBP12.6 binding, and/or structure of the RyR complex that shifts the D-A distance. Under the same assay conditions as in the primary screen, we assessed the effect of 10 μM Hit on fluorescent FKBP12.6 (F-FKBP) binding to RyRs, using co-sedimentation with pig skeletal and cardiac SR membranes.
# (§2) Supplementary Fig. 3 Effect of HTS Hits on F-FKBP binding to a) RyR1 in skeletal HSR membranes, and b) RyR2
# (§3) in cardiac CSR membranes at 30 nM Ca2+ in the presence of 5 mM GSSG or GSH. Results are represented as individual
# (§4) data points and means ± SEM, n = 4-5. *P < 0.05 by 2-sided Student’s unpaired t-test. […]
# RyR2 [6] = target: T2, RyR2 (Sus scrofa, UniProt A0A5G2R1W3); assay: F-FKBP binding to RyR2 by co-sedimentation with cardiac SR membranes; parameters: using co-sedimentation with pig skeletal and cardiac SR membranes; from tissue; host or cells: pig cardiac muscle (crude SR membranes); species or system pig; details: RyR2, 10 μM Hit, 30 nM Ca2+, 5 mM GSSG or GSH
# Description: as §1, §2, §3, §4
# RyR1 [7] = target: T1, RyR1; assay: FLT-FRET between D-FKBP and A-CaM bound to RyR1 in skeletal SR membranes (HTS and dose-response); type: binding, porcine; parameters: RyR1 in skeletal SR membranes, and RyR2 in cardiac SR membranes; from tissue; host or cells: porcine longissimus dorsi muscle (heavy SR vesicles); details: for IC50: RyR1, skeletal SR
# Description: To confer compatibility with current HTS standards in industrial drug discovery facilities, we miniaturized our screening format from the previously established 384-well plates, requiring 50 μL sample per well[19], to 1536-well plates, requiring 5 μL sample per well. The complete 1280-compound library of pharmacologically active compounds (LOPAC) was applied as 5 nL/well in 40 columns of one 1536-well black-wall/black-bottom plate, with the remaining 8 columns loaded with 5 nL/well of DMSO, as no-drug controls. For each run of the screen, three plates were loaded with either (1) unlabeled HSR, or (2) HSR pre-incubated with donor-FKBP (D-FKBP; donor-only sample), or (3) donor-only sample that was additionally incubated with 0.3 μM acceptor-CaM (A-CaM) for 60 min prior to loading on the plate (donor-acceptor sample). This sub-saturating concentration of A-CaM was used to provide a readout that is sensitive to library compounds that may increase or decrease CaM binding affinity to RyR. To promote a homogenous population of RyR1 resembling that associated with myopathies, final assay conditions also included 30 nM Ca^2+ to represent resting (muscle relaxing) Ca^2+, and 5 mM oxidized glutathione (GSSG), which exaggerates the conditions associated with oxidative stress.
# We acquired both FLT waveforms and fluorescence spectra, as previously described[19],[33],[34]. As previously observed, Hit effects were greatest following a 2-hour incubation with the library compounds (Supplementary Fig. 1a). As a result, all FRET results shown in Figs. 1 and 2, and Supplementary Fig. 2 are reported from the 2-hour incubation.
# (§5) Necessary counter-screens to our pathological RyR1 conditions include evaluating compound effects in healthy conditions and on the cardiac isoform, RyR2. Using the same FRET assay as in HTS, we tested the dose response of key Hits from this screen and the previously HTS-identified RyR1 inhibitor, chloroxine, on healthy (5 mM GSH) and pathological (5 mM GSSG) conditions for both RyR1 in skeletal SR membranes, and RyR2 in cardiac SR membranes.
# (§6) Skeletal HSR and cardiac CSR (0.4 mg/ml) membranes were independently pre-incubated with 60 nM D-FKBP, for 90 min, at 37 °C, in a solution containing 150 mM KCl, 5 mM GSH, 0.1 mg/mL BSA, 1 µg/mL Aprotinin/Leupeptin, 1 mM DTT and 20 mM PIPES (pH 7.0). To remove unbound D-FKBP, the SR membranes were spun down at 110,000 × g for 20 min, and then resuspended to 1 mg/mL (skeletal HSR) and 2 mg/mL (cardiac CSR) in binding buffer consisting of 150 mM KCl, 5 mM GSSG, 0.1 mg/mL BSA, 1μg/mL Aprotinin/Leupeptin and 20 mM PIPES, pH 7.0. These samples were then incubated with indicated [A-CaM] for 30 min at 22 °C in binding buffer containing 0.065 mM CaCl2 to give 30 nM free Ca^2+ in the presence of 1 mM EGTA (calculated by MaxChelator). This labeled SR sample was applied to the assay plates in 5 μL aliquots using a Multidrop™ Combi reagent dispenser (Thermo Scientific) with a standard-tube. An additional set of the assay plates were loaded with skeletal HSR or cardiac CSR labeled with only D-FKBP (no added A-CaM).
# (§7) FLT measurements were conducted in a top-read FLT-PR designed and built by Fluorescence Innovations, Inc[33]. AF488 donor fluorescence was excited with a 473-nm microchip laser from Concepts Research Corporation (Belgium, WI), and emission was acquired with 490-nm long-pass and 517/20-nm band-pass filters (Semrock, Rochester, NY).
# FLT waveforms for each well were fit based on a one-exponential decay function using least-squares minimization global-analysis software (Fluorescence Innovations, Inc.), as previously described[19],[33]. FRET efficiency (E) was determined as the fractional decrease of donor FLT (τD), due to the presence of acceptor fluorophore (τDA), using the following equation:1 E=1−τDA/τD, […]
# RyR2 [8] = target: T2, RyR2; assay: FLT-FRET between D-FKBP and A-CaM bound to RyR2 in cardiac SR membranes (dose-response); type: binding, porcine; parameters: RyR1 in skeletal SR membranes, and RyR2 in cardiac SR membranes; from tissue; host or cells: porcine cardiac left ventricle (crude SR vesicles); details: RyR2, cardiac SR, 30 nM Ca2+
# Description: as §5, §6, §7
# FLT waveforms for each well were fit based on a one-exponential decay function using least-squares minimization global-analysis software (Fluorescence Innovations, Inc.), as previously described[19],[33]. FRET efficiency (E) was determined as the fractional decrease of donor FLT (τD), due to the presence of acceptor fluorophore (τDA), using the following equation:1 E=1−τDA/τD,
percent decrease of binding with 10 μM temsirolimus or tacrolimus [1] [%],percent decrease of binding with 10 μM temsirolimus or tacrolimus [2] [%],FRET reduction by temsirolimus [3] [%],FRET reduction by temsirolimus [4] [%],Decrease of F-FKBP binding (RyR1 [5]),Decrease of F-FKBP binding (RyR2 [6]),"Hit in primary FLT-FRET HTS of LOPAC (FRET altered by > 4 SD vs DMSO) (RyR1 [7]; 10 μM compound, 2-hour incubation, 30 nM Ca2+, 5 mM GSSG, 0.3 μM A-CaM, 1536-well)","Influence of GSSG vs GSH on the FRET dose-response effect (RyR1 [7]; 5 mM GSSG vs 5 mM GSH, isoform not given (figures show skeletal and cardiac SR))","Compound concentration at which FRET is abolished (RyR1 [7]; FRET dose-response, isoform not given (figures show skeletal and cardiac SR)) [µM]","IC50 (RyR1 [7]; 30 nM Ca2+, 5 mM GSH) [µM]","IC50 (RyR1 [7]; 30 nM Ca2+, 5 mM GSSG) [µM]",IC50 (RyR2 [8]; 5 mM GSH) [µM],IC50 (RyR2 [8]; 5 mM GSSG) [µM],Compound
70,20,68 to 70,10,–,–,–,–,–,–,–,–,–,FKBP12.6 single-cysteine mutant (C22A/T85C/C76I) labeled with AF488 (donor-FKBP) (natural protein)
–,–,–,–,did not alter,did not alter,identified,not altered by GSH or GSSG,≤ 20,5.9 ± 0.7,7.1 ± 0.5,2.5 ± 0.3,2.4 ± 0.6,Cc1ccc(C(=O)Nc2ccc(S(=O)(=O)O)c3cc(S(=O)(=O)O)cc(S(=O)(=O)O)c23)cc1NC(=O)c1cccc(NC(=O)Nc2cccc(C(=O)Nc3cc(C(=O)Nc4ccc(S(=O)(=O)O)c5cc(S(=O)(=O)O)cc(S(=O)(=O)O)c45)ccc3C)c2)c1 [suramin]
